Reference: patent US20250035576A1, “AUTOMATED OXYGEN-DEPENDENT BLOOD FUNCTION MEASUREMENT SYSTEMS AND METHODS” (FLORIDA ATLANTIC UNIVERSITY BOARD OF TRUSTEES, priority 2023, published 2025)
Entries after “also recorded” stand apart in the source; their conditions may differ.

How the values were obtained:
sickle cells [1] = assay: Microfluidic assay of the efficacy of an anti-sickling oxygen modulator on patient samples; type: cell-based, human; settings: blood samples of 5 patients; FIG. 6D
Excerpt: This, however, could not be detected using conventional hematological assay, such as Hb electrophoresis or HPLC.

sickle cells [2] = assay: Microfluidic cell sickling assay (kinetics of cell sickling) under controlled low O2 tension, cell-imaging analysis; type: cell-based, human; settings: sickle cells from patients on HU treatment vs off HU; PaO2 15 mm Hg; FIG. 6A
Description: (§1) A study was conducted to develop and evaluate the exemplary system and method comprising microfluidic assays of sickle cell functional properties to provide quantitative assessments of disease heterogeneity and severity. A microfluidic strategy for on-chip O2 control was developed, which is critical to measure O2-dependent sickle cell functional properties. This method utilizes gas permeability of thin PDMS film (˜150 μm thick) that enables rapid diffusion of O2 at a specific PaO2 value from the gas channel to the cell channel. […]
(§2) Cell sickling events induced by exposing sickle cells to a transient hypoxia (e.g., reduce the atmospheric (atm) PaO2 to a low O2 tension level) are measured under stationary condition (FIG. 5A). […] Sickle cell rheology (deformability and occlusion) are measured under flow condition for 60 s, where sickle cells with extended delay time in HbS polymerization can escape the micro-slits but those containing rigid HbS fibers (undissolved HbS or hypoxia induced HbS fibers) lose their deformability and become trapped at the micro-slits (FIG. 5B). These two aspects of sickle cell behavior measured under controlled O2 tension (in exposure to testing PaO2 15 mm Hg briefly for 60 s) provided quantitative cell functional assessment, which show strong linear correlation to patient's HbS level, as obtained from standard HPLC (FIG. 5C and FIG. 5D). […]

fetal hemoglobin (HbF) = settings: hematological response to HU, literature [38]; cited from earlier work
sickle cells [3] = assay: Microfluidic sickle cell rheology assay (occlusion/obstruction at micro-slits) under controlled low O2 tension; type: cell-based, human; settings: sickle cells from patients with HU treatment vs without; PaO2 15 mm Hg, flow 60 s; FIG. 6B
Description: as §1, §2

| Structure (SMILES) | dose dependence of anti-sickling efficacy, patient-specific response (sickle cells [1]) | delay time of cell sickling events (sickle cells [2]) | HbF level in some patients (fetal hemoglobin (HbF)) | occlusion fraction (obstruction in micro-slits) (sickle cells [3]) |
| --- | --- | --- | --- | --- |
| O=Cc1ccc(CO)o1 [5HMF, 5-(hydroxymethyl) furfural] | patient-specific response; also recorded: dosedependence is similar among 5 patients, but significant variations exist |  |  |  |
| NC(=O)NO [HU, hydroxyurea] |  | significantly extended | up to 40% | much less obstruction |
